Test results as given in PubChem BioAssay AID328 (DTP/NCI, 2004).
Values joined by “and” are separate entries in the source; they are usually repeats but may differ in a detail not shown here. Equal entries are not always repeated. Toxic doses and inconclusive results are not listed.

System: BDF1 mice, P388 leukemia ip, median survival T/C
Assay: NCI In Vivo Anticancer Drug Screen. Data for tumor model P388 Leukemia (intraperitoneal) in B6D2F1 (BDF1) mice
Conditions: endpoint: median survival time, higher = longer survival
Outline: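 Compound-treated tumour-bearing mice were compared with vehicle-treated controls. Survival was recorded, and the value is the treated-group measurement divided by the control-group measurement (T/C).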

[1] = dose: 25.0 mg/kg/injection, schedule: Q01DX009 (ip), vehicle: saline
[2] = dose: 50.0 mg/kg/injection, schedule: Q01DX009 (ip), vehicle: saline
[3] = dose: 50.0 mg/kg/injection, schedule: Q04DX003 (ip), vehicle: saline
[4] = dose: 100.0 mg/kg/injection, schedule: Q01DX009 (ip), vehicle: saline
[5] = dose: 100.0 mg/kg/injection, schedule: Q04DX003 (ip), vehicle: saline
[6] = dose: 200.0 mg/kg/injection, schedule: Q04DX003 (ip), vehicle: saline
[7] = dose: 100.0 mg/kg/injection, schedule: Q01DX001 (ip), vehicle: saline with Tween-80
[8] = dose: 200.0 mg/kg/injection, schedule: Q01DX001 (ip), vehicle: saline with Tween-80
[9] = dose: 400.0 mg/kg/injection, schedule: Q01DX001 (ip), vehicle: saline with Tween-80
[10] = dose: 100.0 mg/kg/injection, schedule: Q04DX003 (ip), vehicle: water
[11] = dose: 200.0 mg/kg/injection, schedule: Q04DX003 (ip), vehicle: water
[12] = dose: 100.0 mg/kg/injection, schedule: Q01DX001 (ip), vehicle: Klucel (hydroxypropylcellulose) (HPC)
[13] = dose: 100.0 mg/kg/injection, schedule: Q04DX003 (ip), vehicle: saline with Tween-80
[14] = dose: 200.0 mg/kg/injection, schedule: Q04DX003 (ip), vehicle: saline with Tween-80
[15] = dose: 50.0 mg/kg/injection, schedule: Q04DX003 (ip), vehicle: saline with Tween-80
[16] = dose: 200.0 mg/kg/injection, schedule: Q01DX009 (ip), vehicle: saline

In the case of c1ccc2c(c1)NC1(CCCCC1)S2, the T/C (dose: 100.0 mg/kg/injection, schedule: Q01DX009 (ip), vehicle: Klucel (hydroxypropylcellulose) (HPC)) is reported as 104 % of control, the T/C (dose: 100.0 mg/kg/injection, schedule: Q04DX003 (ip), vehicle: Klucel (hydroxypropylcellulose) (HPC)) is reported as 95 % of control and the T/C (dose: 200.0 mg/kg/injection, schedule: Q01DX009 (ip), vehicle: Klucel (hydroxypropylcellulose) (HPC)) is reported as 104 % of control. For the same molecule, the T/C (dose: 200.0 mg/kg/injection, schedule: Q04DX003 (ip), vehicle: Klucel (hydroxypropylcellulose) (HPC)) was 105 % of control, the T/C (dose: 400.0 mg/kg/injection, schedule: Q01DX009 (ip), vehicle: Klucel (hydroxypropylcellulose) (HPC)) was 109 % of control and the T/C (dose: 400.0 mg/kg/injection, schedule: Q04DX003 (ip), vehicle: Klucel (hydroxypropylcellulose) (HPC)) was 105 % of control.
CCNC(C)(C)C(Cl)c1cccs1 (stereo not drawn) was tested, and the T/C (dose: 0.78 mg/kg/injection, schedule: Q01DX009 (ip), vehicle: saline) was 101 % of control, the T/C (dose: 1.56 mg/kg/injection, schedule: Q01DX009 (ip), vehicle: saline) was 110 % of control and the T/C (dose: 3.12 mg/kg/injection, schedule: Q01DX009 (ip), vehicle: saline) was 90 % of control. The T/C (dose: 6.25 mg/kg/injection, schedule: Q01DX009 (ip), vehicle: saline) was 92 % of control and 106 % of control, the T/C [1] was 87 % of control and the T/C [2] was 87 % of control and 112 % of control. The T/C [3] was 100 % of control, the T/C [4] was 114 % of control and the T/C [5] was 118 % of control. The T/C [6] was 86 % of control.
In the case of O=CNc1ccccc1Cl, the T/C [7] is reported as 112 % of control, the T/C [8] is reported as 91 % of control and the T/C [9] is reported as 91 % of control.
With O=c1[nH]ccn2cnnc12 the T/C [7] was 95 % of control, the T/C [8] was 95 % of control and the T/C [9] was 104 % of control.
In the case of COc1c(C#N)c2c(c(OC)c1OC)-c1ccc(OC)c(=O)cc1[C@@H](NC(C)=O)CC2, the T/C (dose: 6.25 mg/kg/injection, schedule: Q01DX009 (ip), vehicle: Klucel (hydroxypropylcellulose) (HPC)) is reported as 119 % of control.
For NC(Cc1ccc(Cl)cc1)C(=O)O (stereo not drawn), the T/C (dose: 200.0 mg/kg/injection, schedule: Q01DX010 (im), vehicle: other) was 90 % of control, the T/C (dose: 400.0 mg/kg/injection, schedule: Q01DX010 (im), vehicle: other) was 90 % of control and the T/C (dose: 600.0 mg/kg/injection, schedule: Q01DX010 (im), vehicle: other) was 90 % of control.
NNc1c(C(N)=O)c2c(N)ncnc2n1C1OC(CO)C(O)C1O (stereo not drawn) was tested, and the T/C (dose: 50.0 mg/kg/injection, schedule: Q04DX003 (ip), vehicle: water) was 171 % of control, the T/C [10] was 166 % of control and the T/C [11] was 199 % of control.
In the case of c1ccc2cc(Nc3ccc(Nc4ccc5ccccc5c4)cc3)ccc2c1, the T/C [12] is reported as 100 % of control, the T/C (dose: 200.0 mg/kg/injection, schedule: Q01DX001 (ip), vehicle: Klucel (hydroxypropylcellulose) (HPC)) is reported as 91 % of control and the T/C (dose: 400.0 mg/kg/injection, schedule: Q01DX001 (ip), vehicle: Klucel (hydroxypropylcellulose) (HPC)) is reported as 95 % of control.
With CCN(C(=O)c1ccc(C(=O)N(CC)c2ccccc2)cc1)c1ccccc1 the T/C [13] was 100 % of control and the T/C [14] was 91 % of control.
For F, the T/C (dose: 0.25 mg/kg/injection, schedule: Q01DX009 (ip), vehicle: water) was 113 % of control, the T/C (dose: 0.5 mg/kg/injection, schedule: Q01DX009 (ip), vehicle: water) was 95 % of control and the T/C (dose: 0.62 mg/kg/injection, schedule: Q01DX009 (ip), vehicle: water) was 86 % of control. The T/C (dose: 1.25 mg/kg/injection, schedule: Q01DX009 (ip), vehicle: water) was 100 % of control, the T/C (dose: 2.5 mg/kg/injection, schedule: Q01DX009 (ip), vehicle: water) was 95 % of control and the T/C (dose: 5.0 mg/kg/injection, schedule: Q01DX009 (ip), vehicle: water) was 100 % of control. For the same molecule, the T/C (dose: 6.25 mg/kg/injection, schedule: Q01DX009 (ip), vehicle: water) was 100 % of control, the T/C (dose: 6.25 mg/kg/injection, schedule: Q04DX003 (ip), vehicle: saline) was 100 % of control and the T/C (dose: 12.5 mg/kg/injection, schedule: Q01DX009 (ip), vehicle: saline) was 100 % of control. For the same molecule, the T/C (dose: 12.5 mg/kg/injection, schedule: Q01DX009 (ip), vehicle: water) was 100 % of control, the T/C (dose: 12.5 mg/kg/injection, schedule: Q04DX003 (ip), vehicle: saline) was 100 % of control and the T/C [1] was 100 % of control. The T/C (dose: 25.0 mg/kg/injection, schedule: Q01DX009 (ip), vehicle: water) was 95 % of control, the T/C (dose: 25.0 mg/kg/injection, schedule: Q04DX003 (ip), vehicle: saline) was 100 % of control and the T/C (dose: 33.0 mg/kg/injection, schedule: Q04DX003 (ip), vehicle: saline) was 104 % of control. The T/C [3] was 95 % of control.
With COc1cc([C@@H]2c3cc4c(cc3C(Br)[C@H]3COC(=O)[C@H]23)OCO4)cc(OC)c1OC (stereo partly drawn) the T/C (dose: 1.0 mg/kg/injection, schedule: Q01DX010 (ip), vehicle: carboxymethylcellulose (CMC)) was 104 % of control, the T/C (dose: 2.1 mg/kg/injection, schedule: Q01DX010 (ip), vehicle: carboxymethylcellulose (CMC)) was 104 % of control and the T/C (dose: 4.2 mg/kg/injection, schedule: Q01DX010 (ip), vehicle: carboxymethylcellulose (CMC)) was 104 % of control. For the same molecule, the T/C (dose: 7.5 mg/kg/injection, schedule: Q01DX009 (ip), vehicle: Klucel (hydroxypropylcellulose) (HPC)) was 161 % of control, the T/C (dose: 15.0 mg/kg/injection, schedule: Q01DX009 (ip), vehicle: Klucel (hydroxypropylcellulose) (HPC)) was 190 % of control and the T/C (dose: 30.0 mg/kg/injection, schedule: Q01DX009 (ip), vehicle: Klucel (hydroxypropylcellulose) (HPC)) was 95 % of control.
COc1ccc(N2C(=O)CC(Sc3ccccc3N)C2=O)cc1 (stereo not drawn) was tested, and the T/C (dose: 50.0 mg/kg/injection, schedule: Q01DX001 (ip), vehicle: Klucel (hydroxypropylcellulose) (HPC)) was 100 % of control and the T/C [12] was 104 % of control.
For COc1ccc(CCO)cc1OC, the T/C (dose: 50.0 mg/kg/injection, schedule: Q01DX009 (ip), vehicle: water) was 97 % of control, the T/C (dose: 100.0 mg/kg/injection, schedule: Q01DX009 (ip), vehicle: water) was 100 % of control and the T/C [10] was 99 % of control. The T/C (dose: 200.0 mg/kg/injection, schedule: Q01DX009 (ip), vehicle: water) was 96 % of control, the T/C [11] was 106 % of control and the T/C (dose: 400.0 mg/kg/injection, schedule: Q01DX009 (ip), vehicle: water) was 96 % of control.
CS(=O)(=O)OCCN(CCOS(C)(=O)=O)c1ccc(C=Nc2ccc3oc(=O)ccc3c2)cc1 was tested, and the T/C [13] was 212 % of control, the T/C (dose: 132.0 mg/kg/injection, schedule: Q04DX003 (ip), vehicle: saline with Tween-80) was 165 % of control and the T/C [14] was 243 % of control.
With CCN(CC)c1c(C)nnc2c3c(-c4ccccc4)c(-c4ccccc4)nnc3nn12 the T/C [15] was 91 % of control and 97 % of control (2×), the T/C [13] was 88 % of control and 91 % of control and 97 % of control and the T/C [14] was 97 % of control and 108 % of control and 123 % of control. The T/C (dose: 400.0 mg/kg/injection, schedule: Q04DX003 (ip), vehicle: saline with Tween-80) was 92 % of control and 113 % of control.
In the case of COc1ccc(/C=C/C(=O)c2ccc(OC)c(OC)c2)cc1O, the T/C [1] is reported as 108 % of control, the T/C [2] is reported as 101 % of control and the T/C [3] is reported as 107 % of control. For the same molecule, the T/C [4] was 106 % of control, the T/C [5] was 110 % of control and the T/C [16] was 90 % of control. The T/C [6] was 107 % of control, the T/C (dose: 400.0 mg/kg/injection, schedule: Q01DX009 (ip), vehicle: saline) was 99 % of control and the T/C (dose: 400.0 mg/kg/injection, schedule: Q04DX003 (ip), vehicle: saline) was 124 % of control.
With CCOC(=O)CC/C(=C/c1ccccc1)[N+](=O)[O-] the T/C (dose: 25.0 mg/kg/injection, schedule: Q04DX003 (ip), vehicle: saline with Tween-80) was 110 % of control, the T/C [15] was 106 % of control and the T/C [13] was 119 % of control.
In the case of O=C(O)COCC(F)(F)C(F)(F)C(F)(F)COCC(=O)O, the T/C [2] is reported as 90 % of control, the T/C [4] is reported as 110 % of control and the T/C [5] is reported as 100 % of control. For the same molecule, the T/C [16] was 110 % of control and the T/C [6] was 122 % of control.
For NCCCNCCCCNCCCN, the T/C (dose: 50.0 mg/kg/injection, schedule: Q01DX001 (ip), vehicle: saline) was 110 % of control.
For O=C(c1ccccc1)C1CN(C2CCCCC2)C1c1ccccc1 (stereo not drawn), the T/C (dose: 25.0 mg/kg/injection, schedule: Q01DX009 (ip), vehicle: saline with Tween-80) was 102 % of control, the T/C (dose: 50.0 mg/kg/injection, schedule: Q01DX009 (ip), vehicle: saline with Tween-80) was 90 % of control and the T/C (dose: 100.0 mg/kg/injection, schedule: Q01DX009 (ip), vehicle: saline with Tween-80) was 102 % of control. The T/C (dose: 200.0 mg/kg/injection, schedule: Q01DX009 (ip), vehicle: saline with Tween-80) was 100 % of control.
